The values below are quoted from earlier work in US20250066504A1, “USE OF OREGOVOMAB AND PARP INHIBITORS FOR TREATMENT OF OVARIAN CANCER” (CANARIABIO INC., priority 2022, published 2025).

The conditions of data set [1]: human, in vivo.
For data set [2] the following is noted: normal rats.
Data set [3] deals with immune suppressive malignancy. The conditions noted are these: immune initiation alone.
A further data set has as its system CA-125-expressing tumors. To be noted: mouse, in vivo.
In another data set the test system is tumor. To be noted: tumor-bearing mice.
For data set [4] the following is noted: 100 times the estimated human dose equivalent (2 mg/60 kg body weight).
For data set [5] the following is noted: normal rabbits.
Data set [6] deals with adenocarcinomas expressing the CA125 antigen.
Data set [7] concerns normal human organs and tissues.
The conditions of data set [8]: 100 times the estimated human dose equivalent (2 mg/60 kg body weight). The source holds these as a separate data set.
Data set [9] relates to platinum-sensitive recurrent ovarian cancer. The conditions noted are these: added to standard chemotherapy, followed by maintenance until progression.
The subject of data set [10] is platinum resistant disease.
Data set [11] deals with platinum-sensitive disease. To be noted: added to gemcitabine and carboplatin.
For data set [12], the system named is advanced epithelial ovarian, adnexal, or primary peritoneal cancer, Stage III and Stage IV. The conditions noted are these: K-M method.
The subject of data set [13] is patient-derived ovarian and breast cancer xenograft. The conditions noted are these: in vivo.
The conditions of data set [14]: in vivo.
The target in a further data set is P-glycoprotein (P-gp) (Homo sapiens, UniProt P08183).
Sequence of P-glycoprotein (P-gp) (P08183 whole entry): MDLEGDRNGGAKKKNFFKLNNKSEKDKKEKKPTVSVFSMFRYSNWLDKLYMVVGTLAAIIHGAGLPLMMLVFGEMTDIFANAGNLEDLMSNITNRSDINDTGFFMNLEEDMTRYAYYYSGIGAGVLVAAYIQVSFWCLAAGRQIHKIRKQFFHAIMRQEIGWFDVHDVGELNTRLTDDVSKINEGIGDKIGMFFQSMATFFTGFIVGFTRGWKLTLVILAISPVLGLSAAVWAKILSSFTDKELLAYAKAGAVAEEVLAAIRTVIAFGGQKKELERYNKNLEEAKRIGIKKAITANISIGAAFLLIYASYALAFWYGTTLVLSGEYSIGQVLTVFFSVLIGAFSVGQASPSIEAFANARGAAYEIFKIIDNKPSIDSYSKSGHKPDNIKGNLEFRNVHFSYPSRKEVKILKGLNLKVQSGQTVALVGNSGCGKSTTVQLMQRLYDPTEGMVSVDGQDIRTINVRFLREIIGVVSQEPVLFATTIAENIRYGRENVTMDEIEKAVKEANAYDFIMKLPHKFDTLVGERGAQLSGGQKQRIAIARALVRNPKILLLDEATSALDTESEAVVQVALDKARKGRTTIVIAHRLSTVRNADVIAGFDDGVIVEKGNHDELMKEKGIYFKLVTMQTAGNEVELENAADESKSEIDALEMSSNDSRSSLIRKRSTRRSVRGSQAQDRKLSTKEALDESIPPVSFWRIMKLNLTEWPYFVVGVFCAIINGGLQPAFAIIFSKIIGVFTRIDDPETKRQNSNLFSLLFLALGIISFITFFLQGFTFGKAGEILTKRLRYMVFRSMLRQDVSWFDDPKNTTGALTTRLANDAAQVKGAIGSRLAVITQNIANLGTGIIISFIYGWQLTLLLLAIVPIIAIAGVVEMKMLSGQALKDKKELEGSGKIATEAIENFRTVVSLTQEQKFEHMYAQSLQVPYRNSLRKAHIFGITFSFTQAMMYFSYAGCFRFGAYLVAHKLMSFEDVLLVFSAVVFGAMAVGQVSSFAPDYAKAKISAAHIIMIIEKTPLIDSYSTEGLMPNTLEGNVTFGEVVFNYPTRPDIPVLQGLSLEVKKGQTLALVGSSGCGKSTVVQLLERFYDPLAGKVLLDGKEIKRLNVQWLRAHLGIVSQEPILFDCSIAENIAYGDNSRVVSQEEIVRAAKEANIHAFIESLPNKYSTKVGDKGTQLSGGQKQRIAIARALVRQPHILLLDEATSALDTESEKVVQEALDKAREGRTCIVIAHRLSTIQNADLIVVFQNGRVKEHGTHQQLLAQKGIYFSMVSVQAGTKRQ
The conditions of data set [15]: 300 mg dose.
The subject of data set [16] is BRCA2-mutant pancreatic cancer (CAPAN-1).
The conditions of data set [17]: for grade 3/4 thrombocytopenia rate in the first 30 days: classification tree model.
Assay in data set [18]: not given
The source holds these as a separate data set.

Data set [19] has as its system platinum-sensitive, recurrent ovarian cancer.
The test system of the next data set is BRCA1-mutant xenograft. The conditions noted are these: dosed orally.
In data set [20] the test system is patient-derived Ewing sarcoma. The conditions noted are these: mouse, in vivo.
For data set [21], the system named is BRCA1-mutant breast cancer (MDA-MB-436).
The conditions of data set [22]: human, in vivo. The source holds these as a separate data set.
[23] abbreviates: lower baseline platelets (<180×10^9/L).
Setting [24] is: HRDpos (Within non-gBRCAmut Cohort).
Setting [25] is: Non-gBRCAmut Cohort (Regardless of HRD Status).

“And” between values parts separate entries of the source, which are not always exact repeats. Equal entries are not always repeated. Where two headings read alike, the source gives them in different places.

With Oregovomab, in [1], the “apparent terminal half-life (t1/2z)” value is reported as “around 33 hours”, the “clearance on repeat administration” value is “accelerated”, the “dose of the radiotracer eliminated in the urine” value is “less than 50%” and the “mean residence time (MRT)” value was “about 45 hours”. Further, the plasma clearance result in [1] is reported as “around 110 mL/minute”. For the same molecule, in data set [2], the humoral response entry is “strong humoral response”. For the same molecule, the “effect on the clinical course of disease” value in [3] was “insufficient to alter the clinical course of disease”. Moreover, the “affinity of binding to CA125” value in the data set on CA125 was 1.16e+10 M⁻¹. In the data set on CA125 (during blood circulation), the “binding force to cancer antigen 125 (CA-125)” value is on record as “less than nano units”. Besides, in the data set with CA-125-expressing tumors, the ascites production result was “inhibited ascites production”, the survival entry is reported as “long-term survival” and the tumor size entry is reported as “reduced tumor size”. In the data set with tumor, the cellular responses entry is reported as “evident” and the humoral response result is recorded as “strong humoral response”. In the data set with tumor (compared to controls), the survival entry was “increase in survival” and the tumor size result is recorded as “decrease in tumor size”. For the same molecule, in data set [4], the acute toxicity entry is “lack of significant acute toxicity”. Further, the humoral response result in data set [5] was “strong humoral response”. The “binding to adenocarcinomas expressing the CA125 antigen” value in [6] was “selective binding”. The “cross-reactivity with selected normal human organs and tissues” value in data set [7] is given as “does not show any significant cross-reactivity”. For the same molecule, the acute toxicity result in data set [8] is “lack of significant acute toxicity”.
With bevacizumab, the median overall survival entry in data set [9] is “improved the median overall survival”. Moreover, the PFS entry is “improved PFS” in data set [10] (added to pegylated liposomal doxorubicin, weekly paclitaxel, or topotecan) and “improved PFS” in [11]. In addition, the OS entry in data set [10] (added to single agent chemotherapy) is “not OS”; in [11], “no difference in OS”.
For paclitaxel/carboplatin, in data set [12], the “OS (median)” value is on record as 43.2 months, the “PFS (median)” value was 12.2 months and the “time to clinical progression (TTCP) (median)” value is recorded as 13.6 months.
As for `NC(=O)c1cccc2cn(-c3ccc([C@@H]4CCCNC4)cc3)nc12` [Niraparib], in [13], the “response in patient-derived xenograft models” value was “demonstrated response in both BRCAmut and BRCA wild-type tumors”. In data set [14], the “effect of food on absorption” value is recorded as “does not significantly affect”. Also, the synthetic lethality entry in the data set with cells with HRD (cells with HRD) was “induce synthetic lethality”. The “effect on normal DNA repair mechanisms” value with cells with HRD (pre-clinical models) is “inhibit normal DNA repair mechanisms”. Further, the “substrate for P-gp” value at P-glycoprotein (P-gp) is listed as “relatively poor substrate”. In addition, the “bone marrow suppression (neutropenia, thrombocytopenia, and anemia), subjects” value in data set [15] is on record as 20-40%. The “hypertension/hypertensive crisis, subjects” value in [15] (treatment for up to two years) was 9%. Further, in data set [16], the antitumor activity result is on record as “strong antitumor activity”. Under “in vivo”, the “correlation between exposure level (plasma concentration) and QTc changes (ΔQTcF)” value is “no correlation”. Further, where the note is “n=26”, the “clinically significant abnormal ECG changes, including QTc interval prolongation, attributed to niraparib” value is listed as “no reports”. The QT interval entry (therapeutic dose) is given as “did not prolong”. In addition, the “grade 3/4 thrombocytopenia rate in the first 30 days” value (from here on “grade 3/4 thrombocytopenia rate”) in [17] (baseline body weight <77 kg or baseline platelet count <150,000 μL) was “approximately 30%”. Also, the “grade 3/4 thrombocytopenia rate” value in data set [17] (baseline body weight <77 kg or baseline platelet count <150,000 μL, listed as niraparib) was 35.4% and ~30%. The “incidence of grade 3 or 4 thrombocytopenia in the first 30 days” value in [17] (baseline body weight ≥77 kg) is listed as 14%. Also, in [17] (body weight <58 kg), the “incidence of grade 3 or 4 thrombocytopenia in the first 30 days” value is reported as 43% and the “subjects with a dose reduction” value is listed as “approximately 80%”. In data set [17] (body weight >77 kg and platelet count >150,000 μL), the “grade 3/4 thrombocytopenia rate” value is 11.5%. The treatment discontinuations in data set [17] (highest quartile (≥77 kg)) is listed as 10%. In [17] (setting [23]), the “frequency of thrombocytopenia Grade ≥1” value is listed as 76% and the “frequency of thrombocytopenia Grade ≥3” value was 45%. Further, the treatment discontinuations in [17] (lower body weight (<58 kg quartile)) is reported as 24%. The “subjects with a dose reduction” value in data set [17] (weight greater than or equal to 77 kg) was 59%. Also, in data set [18] (5 of 367), the “incidence of MDS/AML” value is reported as 1.4%. Moreover, in [18] (human, in vivo), the “anemia (all grades)” value is recorded as 49%, the “constipation (all grades)” value is 40%, the “decreased platelet count (all grades)” value is 20% and the “fatigue (all grades)” value is given as 46%. Moreover, in [18] (human, in vivo), the “nausea (all grades)” value is 74%, the “neutropenia (all grades)” value is 18%, the on-treatment deaths result was “no on-treatment deaths” and the “subjects with at least 1 treatment-emergent adverse event (TEAE)” value is “All 367”. Besides, in [18] (human, in vivo), the “thrombocytopenia (all grades)” value is listed as 46% and the “vomiting (all grades)” value is on record as 34%. Further, in data set [18] (overall safety population), the “TEAEs leading to dose reduction” value is 69%, the “TEAEs leading to treatment discontinuation” value is listed as 15%, the “TEAEs leading to treatment interruption” value was 67% and the “incidence of Grade 3 or 4 TEAEs” value is on record as 74%. Further, in data set [18] (overall safety population), the “incidence of serious adverse events (SAEs)” value is listed as 30%. For the same molecule, in [19] (setting [24]), the “HR (niraparib:placebo)” value was 0.38 and the “Median PFS” value is listed as 12.9 months. In data set [19] (setting [25]), the “HR (niraparib:placebo)” value is given as 0.45 and the “Median PFS” value is reported as 9.3 months. Moreover, the “Median PFS” value in data set [19] (gBRCAmut Cohort, 300 mg QD) was 21.0 months. The “HR (niraparib:placebo)” value in data set [19] (gBRCAmut Cohort, stratified Cox proportional hazards model) was 0.27. Moreover, in [19] (retrospective analyses from NOVA), the “efficacy at the reduced dose” value is on record as “did not compromise efficacy”. Also, in data set [19] (subjects with HRDneg tumors), the HR is on record as 0.58 and the “Median PFS” value is listed as 6.9 months. Moreover, in the data set with BRCA1-mutant xenograft, the “reduction in tumor weight compared with control” value is listed as over 90% and the tumor response result is reported as “tumor regression”. Besides, the antitumor activity entry in [20] is recorded as “strong antitumor activity”. Further, in data set [21], the antitumor activity result is reported as “strong antitumor activity”. Also, the ORR in the data set on ovarian cancer (98 subjects in the HRD-positive cohort, RECIST v1.1, 300 mg once daily) is given as 24%. Moreover, in the data set on ovarian cancer (HRD-positive cohort), the “Estimated median DOR” value is listed as 8.3 months. In the data set with ovarian cancer (in vivo), the new safety signals entry is “No new safety signals”. The “subjects achieving an overall response” value in the data set with ovarian cancer (primary efficacy population (13 of 47)) is listed as 28%. The ORR in the data set with ovarian cancer (tBRCAm ovarian cancer, platinum-refractory disease (3/16)) is given as 19%. For the same molecule, in the data set on ovarian cancer (tBRCAm ovarian cancer, platinum-resistant disease (6/21)), the ORR was 29%. Further, in the data set with ovarian cancer (tBRCAm ovarian cancer, platinum-sensitive disease (7/18)), the ORR is 39%.
Turning to `O=C(c1cc(Cc2n[nH]c(=O)c3ccccc23)ccc1F)N1CCN(C(=O)C2CC2)CC1` [olaparib], the “myelodysplastic syndrome (MDS) and acute myeloid leukemia (AML)” value in [22] was “have been observed”.
